Reference: EP1772146A1, “Polyunsaturated fatty acids as bace inhibitors” (Neuropharma, S.A., priority 2005, dated 2007)
Where two headings read alike, the source gives them in different places.

Biological target: T1, rhBACE-1 β-Secretase recombinant human (Homo sapiens, UniProt P56817)
T1 construct: purchased R&D Systems 931-AS
Assay: BACE assay (FRET, fluorogenic peptide substrate cleavage)
Assay type: biochemical
Details: for activity at 10 µM: read-out: % BACE Activity (10^-5 M)
Text: The aim of this assay is to determine if a compound, either synthetic or of marine origin, is a BACE-1 inhibitor, to avoid the formation of Aβ. This assay is based on FRET technology (Fluorescence Resonance Energy Transfer). FRET is used to measure cleavage of a peptide substrate, among other uses. […] When a substrate peptide cleavage occurs, the energy balance is broken and all the donor fluorescence can be observed. The increase in fluorescence is linearly related to the rate of proteolysis (Gordon, GW et al., 1998). In this assay the reaction occurs between an enzyme, purified BACE-1, and a fluorogenic peptidic substrate who present the "Swedish mutation". The peptide cleavage by BACE-1 produces fluorescence energy and enzymatic activity can be quantified. The reagents which are used in this assay are the following: • rhBACE-1 β-Secretase recombinant human (R&D Systems. Ref. 931-AS). • Fluorogenic Peptide Substrate IV (R&D Systems. Ref. ES004). • B-SECRETASE INHIBITOR H-4848. (BACHEM. Ref. H-4848.0001). • FLUOSTAR OPTIMA plate reader with 320 nm excitation filter and 405 nm emission filter (Biogen cientifica). • Black microwell plate, 96 wells (Nunc. Ref. 00006877). Supplier: Dismadel. • Sodium acetate.
The assay is carried out in a 96 wells microplate. The final concentration of substrate is 3,5 µM per well, and the enzyme concentration is 0,5 µg/ml. The final volume of the assay is 100 µl per well and all reagents are diluted in Reaction Buffer. The compounds are tested at a concentration of 10^-5. The control in the assay is the commercial inhibitor β-Secretase inhibitor H-4848, which is tested at 300 nM. All the samples and controls are studied by duplicate.
The plate is mixed gently and changes in the fluorescence are measured using the plate reader, with "BACE" protocol. The temperature should be preferably maintained between 25 and 30 °C. Measurements are carried out every ten minutes during an hour. The first measure is subtracted from the last to calculate the fluorescence increase, evaluating the enzymatic activity. The 100% activity is calculated as the mean of the results of wells without sample or inhibitor.
Further information regarding this assay may be found in the following references, which are incorporated by reference into the present application: • Andrau, D et al; "BACE1- and BACE2-expressing human cells: characterization of beta-Amyloid precursor protein-derived catabolites, design of a novel fluorimetric assay, and identification of new in vitro inhibitors". J Biol Chem. 2003 Jul 11;278(28):25859-66. Gordon, GW et al; "Quantitative fluorescence resonance energy transfer measurements using fluorescence microscopy." Biophys J. 1998 May; 74:2702-13.

[1] = comparative examples (derivatives of arachidonic acid) at 10^-5 M, mean results, remaining enzyme activity, 100% = wells without sample or inhibitor
[2] = fatty acids of formula (I) at 10^-5 M, mean results, remaining enzyme activity, 100% = wells without sample or inhibitor

T1 sequence (P56817 46-457 limits assumed): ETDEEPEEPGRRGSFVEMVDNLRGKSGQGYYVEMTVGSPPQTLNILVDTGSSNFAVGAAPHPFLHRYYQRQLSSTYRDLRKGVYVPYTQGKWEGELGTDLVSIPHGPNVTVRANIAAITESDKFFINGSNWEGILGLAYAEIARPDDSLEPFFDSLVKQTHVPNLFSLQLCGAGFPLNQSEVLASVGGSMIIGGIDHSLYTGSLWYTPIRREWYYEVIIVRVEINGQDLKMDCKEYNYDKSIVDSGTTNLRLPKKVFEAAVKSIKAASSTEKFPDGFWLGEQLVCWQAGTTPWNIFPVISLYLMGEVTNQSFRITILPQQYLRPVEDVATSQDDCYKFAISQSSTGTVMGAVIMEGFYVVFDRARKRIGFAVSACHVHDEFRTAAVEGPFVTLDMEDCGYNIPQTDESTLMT

| Compound | activity at 10 µM | activity at 10 µM [1] | further results |
| --- | --- | --- | --- |
| CCCCCC=CCC=CCC=CCC=CCCCC(=O)NCCO [Anandamide, Icosa-5,8,11,14-tetraenoic acid (2-hydroxy-ethyl)-amide] | 100% |  |  |
| CCCCC/C=C\C/C=C\C/C=C\C/C=C\CCCC(=O)O [Arachidonic acid, cis,cis,cis,cis-5,8,11,14-Eicosatetraenoic acid] | 48.7% |  |  |
| CCCCCC=CCC=CCC=CCC=CCCCCOC(C)=O [Arachidonyl Acetate, Acetic acid icosa-5,8,11,14-tetraenyl ester] |  | 100% |  |
| CCCCCC=CCC=CCC=CCC=CCCCCO [Arachidonyl alcohol, Icosa-5,8,11,14-tetraen-1-ol] |  | 100% |  |
| CC/C=C\C/C=C\C/C=C\C/C=C\C/C=C\C/C=C\CCC(=O)O [Docosahexaenoic acid (DHA), cis-4,7,10,13,16,19-Docosahexaenoic Acid] |  |  | activity at 10 µM [2]: 82% |
| CCCCCC=CCC=CCC=CCC=CCCCC(=O)OCC [Ethyl arachidonate, 5,8,11,14-Eicosatetraenoic acid ethyl ester] |  | 100% |  |
| CCCCC/C=C\C/C=C\CCCCCCCC(=O)O [Linoleic acid, cis-9,cis-12-Octadecadienoic acid] |  |  | activity at 10 µM [2]: 55% |
| CC/C=C\C/C=C\C/C=C\CCCCCCCC(=O)O [Linolenic acid, cis,cis,cis-9,12,15-Octadecatrienoic acid] | 55.5% |  |  |
| Cyclopropanecarboxylic acid icosa-5,8,11,14-tetraenylam ide [Arachidonylcyclopropylamide (ACPA)] |  |  | % BACE Activity (10^-5 M) (comparative examples (derivatives of arachidonic acid) at 10^-5 M, mean results, remaining enzyme activity, 100% = wells without sample or inhibitor, 10 µM): 100% |
